From PubChem BioAssay (NCI)
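Briefly, cells in 96-well plates were exposed to five compound concentrations for 48 h, and endpoints were estimated by linear interpolation. The concentration for 50% growth inhibition is given as GI50. The concentration for full growth arrest is given as TGI.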

Columns and labels:
Assay in all cases: DTP human tumour cell line panel, 48 h
786-0 renal = system: 786-0 renal
A498 renal = system: A498 renal
A549 NSCLC = system: A549 NSCLC
ACHN renal = system: ACHN renal
BT-549 breast = system: BT-549 breast
CAKI-1 renal = system: CAKI-1 renal
CCRF-CEM leukemia = system: CCRF-CEM leukemia
COLO 205 colon = system: COLO 205 colon
DU-145 prostate = system: DU-145 prostate
EKVX NSCLC = system: EKVX NSCLC
HCC-2998 colon = system: HCC-2998 colon
HCT-116 colon = system: HCT-116 colon
HCT-15 colon = system: HCT-15 colon
HL-60(TB) leukemia = system: HL-60(TB) leukemia
HOP-62 NSCLC = system: HOP-62 NSCLC
HOP-92 NSCLC = system: HOP-92 NSCLC
HS 578T breast = system: HS 578T breast
HT29 colon = system: HT29 colon
K-562 leukemia = system: K-562 leukemia
KM12 colon = system: KM12 colon
LOX IMVI melanoma = system: LOX IMVI melanoma
M14 melanoma = system: M14 melanoma
MALME-3M melanoma = system: MALME-3M melanoma
MCF7 breast = system: MCF7 breast
MDA-MB-231 breast = system: MDA-MB-231 breast
MDA-MB-435 = system: MDA-MB-435
MOLT-4 leukemia = system: MOLT-4 leukemia
NCI-H226 lung = system: NCI-H226 lung
NCI-H23 lung = system: NCI-H23 lung
NCI-H460 lung = system: NCI-H460 lung
NCI-H522 lung = system: NCI-H522 lung
NCI/ADR-RES ovarian = system: NCI/ADR-RES ovarian
OVCAR-3 ovarian = system: OVCAR-3 ovarian
OVCAR-4 ovarian = system: OVCAR-4 ovarian
OVCAR-5 ovarian = system: OVCAR-5 ovarian
OVCAR-8 ovarian = system: OVCAR-8 ovarian
PC-3 prostate = system: PC-3 prostate
RPMI-8226 leukemia = system: RPMI-8226 leukemia
RXF 393 renal = system: RXF 393 renal
SF-268 CNS = system: SF-268 CNS
SF-295 CNS = system: SF-295 CNS
SF-539 CNS = system: SF-539 CNS
SK-MEL-2 melanoma = system: SK-MEL-2 melanoma
SK-MEL-28 melanoma = system: SK-MEL-28 melanoma
SK-MEL-5 melanoma = system: SK-MEL-5 melanoma
SK-OV-3 ovarian = system: SK-OV-3 ovarian
SN12C renal = system: SN12C renal
SNB-19 CNS = system: SNB-19 CNS
SNB-75 CNS = system: SNB-75 CNS
SW-620 colon = system: SW-620 colon
T-47D breast = system: T-47D breast
TK-10 renal = system: TK-10 renal
U251 CNS = system: U251 CNS
UACC-257 melanoma = system: UACC-257 melanoma
UACC-62 melanoma = system: UACC-62 melanoma
UO-31 renal = system: UO-31 renal

O=C(N/N=C/c1ccc(Cl)cc1Cl)c1ccccc1Nc1cccc(C(F)(F)F)c1 was tested, and the GI50 (786-0 renal) was 6.74 µM, the TGI (786-0 renal) was 31 µM and the GI50 (A498 renal) was 14.9 µM. The TGI (A498 renal) was 52.4 µM, the GI50 (A549 NSCLC) was 2.31 µM and the TGI (A549 NSCLC) was 6.18 µM. For the same molecule, the GI50 (ACHN renal) was 3.77 µM, the TGI (ACHN renal) was 16.5 µM and the GI50 (BT-549 breast) was 3.84 µM. The TGI (BT-549 breast) was 32.5 µM, the GI50 (CAKI-1 renal) was 3.45 µM and the TGI (CAKI-1 renal) was 14.4 µM. The GI50 (CCRF-CEM leukemia) was 3.51 µM, the TGI (CCRF-CEM leukemia) was 19.3 µM and the GI50 (COLO 205 colon) was 2.73 µM. For the same molecule, the TGI (COLO 205 colon) was 9.37 µM, the GI50 (DU-145 prostate) was 4.08 µM and the TGI (DU-145 prostate) was 38.7 µM. For the same molecule, the GI50 (EKVX NSCLC) was 12.2 µM, the TGI (EKVX NSCLC) was 80.1 µM and the GI50 (HCC-2998 colon) was 8.52 µM. The TGI (HCC-2998 colon) was greater than 100 µM, the GI50 (HCT-116 colon) was 5.62 µM and the TGI (HCT-116 colon) was 29.9 µM. The GI50 (HCT-15 colon) was 30.5 µM, the TGI (HCT-15 colon) was greater than 100 µM and the GI50 (HL-60(TB) leukemia) was 79 µM. The TGI (HL-60(TB) leukemia) was greater than 100 µM, the GI50 (HOP-62 NSCLC) was 5.36 µM and the TGI (HOP-62 NSCLC) was 18.3 µM. The GI50 (HOP-92 NSCLC) was 1.5 µM, the TGI (HOP-92 NSCLC) was 3.57 µM and the GI50 (HS 578T breast) was 4.1 µM. For the same molecule, the TGI (HS 578T breast) was 44.5 µM, the GI50 (HT29 colon) was 14.4 µM and the TGI (HT29 colon) was greater than 100 µM. The GI50 (K-562 leukemia) was 4.86 µM, the TGI (K-562 leukemia) was greater than 100 µM and the GI50 (KM12 colon) was 9.07 µM. The TGI (KM12 colon) was greater than 100 µM, the GI50 (LOX IMVI melanoma) was 7.26 µM and the TGI (LOX IMVI melanoma) was 63.7 µM. The GI50 (M14 melanoma) was 5.51 µM, the TGI (M14 melanoma) was 35.3 µM and the GI50 (MALME-3M melanoma) was 2.62 µM. The TGI (MALME-3M melanoma) was 10.5 µM, the GI50 (MCF7 breast) was 11.3 µM and the TGI (MCF7 breast) was greater than 100 µM. The GI50 (MDA-MB-231 breast) was 4.79 µM, the TGI (MDA-MB-231 breast) was 32.2 µM and the GI50 (MDA-MB-435) was 22.3 µM. It also gave a TGI (MDA-MB-435) greater than 100 µM, a GI50 (MOLT-4 leukemia) of 4.22 µM and a TGI (MOLT-4 leukemia) of 40 µM. The GI50 (NCI-H226 lung) was 3.67 µM, the TGI (NCI-H226 lung) was 43.5 µM and the GI50 (NCI-H23 lung) was 5.93 µM. It also gave a TGI (NCI-H23 lung) of 32.8 µM, a GI50 (NCI-H460 lung) of 6.98 µM and a TGI (NCI-H460 lung) greater than 100 µM. For the same molecule, the GI50 (NCI-H522 lung) was 3.34 µM, the TGI (NCI-H522 lung) was 20.7 µM and the GI50 (NCI/ADR-RES ovarian) was 5.97 µM. The TGI (NCI/ADR-RES ovarian) was 36.7 µM, the GI50 (OVCAR-3 ovarian) was 2.85 µM and the TGI (OVCAR-3 ovarian) was 8.03 µM. For the same molecule, the GI50 (OVCAR-4 ovarian) was 2.94 µM, the TGI (OVCAR-4 ovarian) was 12.4 µM and the GI50 (OVCAR-5 ovarian) was 24.3 µM. It also gave a TGI (OVCAR-5 ovarian) greater than 100 µM, a GI50 (OVCAR-8 ovarian) of 2.47 µM and a TGI (OVCAR-8 ovarian) of 5.99 µM. For the same molecule, the GI50 (PC-3 prostate) was 2.4 µM, the TGI (PC-3 prostate) was 8.82 µM and the GI50 (RPMI-8226 leukemia) was 2.87 µM. For the same molecule, the TGI (RPMI-8226 leukemia) was 46.3 µM, the GI50 (RXF 393 renal) was 2.24 µM and the TGI (RXF 393 renal) was 4.41 µM. It also gave a GI50 (SF-268 CNS) of 3.38 µM, a TGI (SF-268 CNS) of 13.3 µM and a GI50 (SF-295 CNS) of 2.55 µM. For the same molecule, the TGI (SF-295 CNS) was 8.8 µM, the GI50 (SF-539 CNS) was 3.36 µM and the TGI (SF-539 CNS) was 12.8 µM. It also gave a GI50 (SK-MEL-2 melanoma) of 2.76 µM, a TGI (SK-MEL-2 melanoma) of 10.7 µM and a GI50 (SK-MEL-28 melanoma) of 28.8 µM. It also gave a TGI (SK-MEL-28 melanoma) greater than 100 µM, a GI50 (SK-MEL-5 melanoma) of 26.5 µM and a TGI (SK-MEL-5 melanoma) greater than 100 µM. The GI50 (SK-OV-3 ovarian) was 12.5 µM, the TGI (SK-OV-3 ovarian) was 39.2 µM and the GI50 (SN12C renal) was 7.66 µM. For the same molecule, the TGI (SN12C renal) was 48.2 µM, the GI50 (SNB-19 CNS) was 2.5 µM and the TGI (SNB-19 CNS) was 6.93 µM. The GI50 (SNB-75 CNS) was 2.55 µM, the TGI (SNB-75 CNS) was 9.71 µM and the GI50 (SW-620 colon) was 8.63 µM. It also gave a TGI (SW-620 colon) greater than 100 µM, a GI50 (T-47D breast) of 2.2 µM and a TGI (T-47D breast) of 6.9 µM. The GI50 (TK-10 renal) was 2.84 µM, the TGI (TK-10 renal) was 9.22 µM and the GI50 (U251 CNS) was 3.07 µM. It also gave a TGI (U251 CNS) of 9.64 µM, a GI50 (UACC-257 melanoma) of 4.27 µM and a TGI (UACC-257 melanoma) of 25.4 µM. For the same molecule, the GI50 (UACC-62 melanoma) was 13.3 µM, the TGI (UACC-62 melanoma) was 58.4 µM and the GI50 (UO-31 renal) was 3.14 µM. The TGI (UO-31 renal) was 22.1 µM.
